According to publication PMC12655172, “Borylated 5-Membered Ring Iminosugars: Synthesis and Biological Evaluation for Glycosidase Inhibition and Anticancer Properties for Application in Boron Neutron Capture Therapy (BNCT)—Part 2” (Pharmaceuticals, 2025):

Tests used:
[1] = system: T1, amyloglucosidase (A. niger); test: Glycosidase inhibition (Table 2 panel); assay type: biochemical
T1 construct: purchased Sigma-Aldrich
From the text: (§1) The enzymes α-D-glucosidase (yeast), β-D-glucosidases (almond, bovine liver), α-D-galactosidase (coffee beans), β-D-galactosidase (bovine liver), α-D-mannosidase (Jack bean), β-D-mannosidase (snail), α-L-rhamnosidase (P. decumbens), α-L-fucosidase (bovine kidney), trehalase (porcine kidney), β-D-glucuronidases (E. coli, bovine liver), amyloglucosidase (A. niger), para-nitrophenyl glycosides, and various disaccharides were purchased from Sigma-Aldrich Co (St. Louis, MO, USA).
(§2) Brush border membranes were prepared from the rat small intestine according to the method of Kessler et al., and were assayed at pH 6.8 for rat intestinal maltase using maltose. […] The reaction was stopped by heating at 100 °C for 3 min. After centrifugation (600 g; 10 min), the resulting reaction mixture was added to the Glucose CII-test Wako (Wako Pure Chemical Ind., Osaka, Japan). […] Other glycosidase activities were determined using an appropriate para-nitrophenyl glycoside as substrate at the optimum pH of each enzyme. The reaction mixture contained the substrate ([…]) and the appropriate amount of enzyme. The reaction was stopped by the addition of Na2CO3 (400 μM). The released para-nitrophenol was measured spectrometrically at 400 nm. All reactions were run in methanol.

[2] = system: T2, β-D-glucuronidase (E. coli); test: Glycosidase inhibition (Table 2 panel); assay type: biochemical
T2 construct: purchased Sigma-Aldrich
From the text: as §1, §2

[3] = Sample appearance on sample preparation in water; assay type: physicochemical; conditions: 1 mL of water was added to 1 mg solid
β-D-mannosidase (snail) = test: Glycosidase inhibition (Table 2 panel); assay type: biochemical
From the text: as §1
(§3) Brush border membranes were prepared from the rat small intestine according to the method of Kessler et al., and were assayed at pH 6.8 for rat intestinal maltase using maltose. For rat intestinal maltase, porcine kidney trehalase, and A. niger amyloglucosidase activities, the reaction mixture contained maltose ([…]) and the appropriate amount of enzyme, and the incubations were performed for 10–30 min at 37 °C. The reaction was stopped by heating at 100 °C for 3 min. After centrifugation (600 g; 10 min), the resulting reaction mixture was added to the Glucose CII-test Wako (Wako Pure Chemical Ind., Osaka, Japan). The absorbance at 505 nm was measured to determine the amount of the released D-glucose. Other glycosidase activities were determined using an appropriate para-nitrophenyl glycoside as substrate at the optimum pH of each enzyme. The reaction mixture contained the substrate ([…]) and the appropriate amount of enzyme. The reaction was stopped by the addition of Na2CO3 ([…]). The released para-nitrophenol was measured spectrometrically at 400 nm. All reactions were run in […].

[4] = system: β-D-glucuronidase (bovine liver); test: Glycosidase inhibition (Table 2 panel); assay type: biochemical
From the text: as §1, §3

β-D-glucosidase (almond) = test: Glycosidase inhibition (Table 2 panel); assay type: biochemical
From the text: as §1, §3

[5] = system: T3, α-D-galactosidase (coffee beans); test: Glycosidase inhibition (Table 2 panel); assay type: biochemical
T3 construct: purchased Sigma-Aldrich; host or cells: coffee beans
From the text: as §1, §3

[6] = system: T4, α-D-mannosidase (Jack bean); test: Glycosidase inhibition (Table 2 panel); assay type: biochemical
T4 construct: purchased Sigma-Aldrich; host or cells: Jack bean
From the text: as §1, §3

[7] = system: α-D-glucosidase (rat intestinal maltase); test: Glycosidase inhibition (Table 2 panel); assay type: biochemical
From the text: as §1, §3

[8] = system: α-L-rhamnosidase (P. decumbens); test: Glycosidase inhibition (Table 2 panel); assay type: biochemical
From the text: as §1, §3

[9] = system: T5, trehalase (porcine kidney); test: Glycosidase inhibition (Table 2 panel); assay type: biochemical
T5 construct: purchased Sigma-Aldrich; host or cells: porcine kidney
From the text: as §1, §3

[10] = target: T6, β-D-glucosidase (bovine liver) (Bos taurus, UniProt F1MNT6); test: Glycosidase inhibition (Table 2 panel); assay type: biochemical
T6 sequence (F1MNT6 1-469): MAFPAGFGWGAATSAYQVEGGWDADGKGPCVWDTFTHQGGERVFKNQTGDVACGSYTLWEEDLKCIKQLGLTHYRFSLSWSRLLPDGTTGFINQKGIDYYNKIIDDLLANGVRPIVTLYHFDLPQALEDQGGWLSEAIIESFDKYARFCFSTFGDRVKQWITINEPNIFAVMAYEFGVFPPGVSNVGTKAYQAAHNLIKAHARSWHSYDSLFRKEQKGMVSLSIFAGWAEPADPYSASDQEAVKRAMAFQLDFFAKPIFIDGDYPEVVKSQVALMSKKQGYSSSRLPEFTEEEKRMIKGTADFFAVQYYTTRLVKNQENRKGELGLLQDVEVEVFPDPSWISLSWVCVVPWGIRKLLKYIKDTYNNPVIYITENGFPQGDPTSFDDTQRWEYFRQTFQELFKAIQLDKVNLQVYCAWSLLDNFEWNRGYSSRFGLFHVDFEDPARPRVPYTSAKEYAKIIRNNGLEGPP
From the text: as §1, §3

[11] = system: MCF10A (non-tumour derived normal breast cell line); test: Cancer screening, MTT growth inhibition; assay type: cell-based; conditions: 72 h; for inhibition at 25 µM / GI50: Homo sapiens, MCF-10A; for inhibition at 25 µM: read-out: DOSE SCREEN percentage (%) cell growth inhibition MCF10A Breast (normal); for GI50: read-out: DOSE RESPONSE GI50 MCF10A Breast (normal)
α-D-glucosidase (yeast) [12] = target: T7, α-D-glucosidase (yeast) (Saccharomyces cerevisiae, UniProt P53341); test: Glycosidase inhibition (Table 2 panel); assay type: biochemical; conditions: for inhibition at 100 µM / inhibition at 1000 µM: read-out: inhibition % α-D-Glucosidase Yeast
T7 construct: purchased Sigma-Aldrich
T7 sequence (P53341 whole entry): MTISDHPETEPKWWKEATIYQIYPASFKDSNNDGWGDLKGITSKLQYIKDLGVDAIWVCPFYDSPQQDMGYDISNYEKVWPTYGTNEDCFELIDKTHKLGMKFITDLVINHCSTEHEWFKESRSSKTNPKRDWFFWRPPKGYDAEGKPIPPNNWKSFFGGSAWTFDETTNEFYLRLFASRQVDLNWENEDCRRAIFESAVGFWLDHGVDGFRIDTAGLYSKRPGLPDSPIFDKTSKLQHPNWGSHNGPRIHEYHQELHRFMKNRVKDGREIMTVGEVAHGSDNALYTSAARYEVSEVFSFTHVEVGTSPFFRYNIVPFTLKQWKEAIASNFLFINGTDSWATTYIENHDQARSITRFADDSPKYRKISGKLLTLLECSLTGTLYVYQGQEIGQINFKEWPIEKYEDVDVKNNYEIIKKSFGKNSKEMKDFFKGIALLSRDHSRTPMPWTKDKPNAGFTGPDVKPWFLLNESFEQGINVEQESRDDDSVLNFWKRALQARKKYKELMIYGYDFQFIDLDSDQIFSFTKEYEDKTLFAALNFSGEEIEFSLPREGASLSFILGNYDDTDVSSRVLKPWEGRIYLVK
From the text: as §1, §2

α-D-glucosidase (rice) = α-D-glucosidase (rice) (Oryza sativa subsp. japonica, UniProt Q653V7); test: Glycosidase inhibition (Table 2 panel); assay type: biochemical
α-D-glucosidase (rice), sequence (Q653V7 34-885): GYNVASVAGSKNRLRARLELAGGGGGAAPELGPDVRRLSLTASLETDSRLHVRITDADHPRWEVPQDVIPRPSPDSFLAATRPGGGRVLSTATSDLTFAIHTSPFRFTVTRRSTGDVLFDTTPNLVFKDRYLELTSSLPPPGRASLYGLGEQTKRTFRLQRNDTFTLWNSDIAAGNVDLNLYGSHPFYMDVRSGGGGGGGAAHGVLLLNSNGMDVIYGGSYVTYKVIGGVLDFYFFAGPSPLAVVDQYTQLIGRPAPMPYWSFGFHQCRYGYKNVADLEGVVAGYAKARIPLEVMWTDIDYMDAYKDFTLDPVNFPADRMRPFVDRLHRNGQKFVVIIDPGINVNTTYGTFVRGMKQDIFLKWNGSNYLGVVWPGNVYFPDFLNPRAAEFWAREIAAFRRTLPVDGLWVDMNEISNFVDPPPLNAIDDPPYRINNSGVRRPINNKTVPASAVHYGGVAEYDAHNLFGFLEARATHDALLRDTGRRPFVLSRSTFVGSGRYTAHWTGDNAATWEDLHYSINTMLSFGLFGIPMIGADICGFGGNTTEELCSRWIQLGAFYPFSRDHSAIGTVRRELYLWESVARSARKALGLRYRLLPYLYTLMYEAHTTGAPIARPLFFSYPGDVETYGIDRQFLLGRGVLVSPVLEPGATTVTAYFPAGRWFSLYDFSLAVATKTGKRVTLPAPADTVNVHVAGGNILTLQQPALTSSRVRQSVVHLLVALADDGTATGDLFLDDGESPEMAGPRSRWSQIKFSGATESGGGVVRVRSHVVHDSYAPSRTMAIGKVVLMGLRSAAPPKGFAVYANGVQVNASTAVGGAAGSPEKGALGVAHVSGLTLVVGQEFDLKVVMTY
From the text: as §1, §3

α-D-glucosidase (yeast) [13] = target: T7, α-D-glucosidase (yeast); test: Glycosidase inhibition (Table 3 panel); assay type: biochemical; conditions: 1 mg/mL aqueous solution, run in water; for inhibition at 1000 µg/mL (stock): read-out: Percentage inhibition α-D-Glucosidase Yeast
Protocol: All enzymes and para-nitrophenyl substrates were purchased from Sigma. Enzymes were assayed at 27 °C in citric acid (0.1 M)/disodium hydrogen phosphate (0.2 M) buffers at the optimum pH for the enzyme. The incubation mixture consisted of […] of 1 mg/mL aqueous solution of extract and […] of the appropriate 5 μM para-nitrophenyl substrate made up in buffer at the optimum pH for the enzyme. […] Assays were carried out in triplicate, and the values given are means of the three replicates per assay. All reactions were run in water.

Row | SMILES | inhibition % Amyloglucosidase A. niger ([1]; at 100 μM) | inhibition % β-D-Glucuronidase E. coli ([2]; at 100 μM) | Sample Appearance [3] | inhibition % β-D-Mannosidase Snail (β-D-mannosidase (snail); at 100 μM) | inhibition % β-D-Glucuronidase Bovine Liver ([4]; at 100 μM) | inhibition % β-D-Glucosidase Almond (β-D-glucosidase (almond); at 100 μM) | inhibition % α-D-Galactosidase Coffee Beans ([5]; at 100 μM) | inhibition % α-D-Mannosidase Jack Bean ([6]; at 100 μM) | inhibition % α-D-Glucosidase Rat Intestinal Maltase ([7]; at 100 μM) | inhibition % α-L-Rhamnosidase P. decumbens ([8]; at 100 μM) | inhibition % Trehalase Porcine Kidney ([9]; at 100 μM) | inhibition at 100 µM ([10]; at 100 μM) | inhibition at 25 µM ([11]; 25 µM of drug) | Percentage inhibition α-D-Glucosidase Yeast (α-D-glucosidase (yeast) [13]) | inhibition % Amyloglucosidase A. niger ([1]; at 1000 μM) | inhibition % β-D-Glucuronidase E. coli ([2]; at 1000 μM) | inhibition at 100 µM (α-D-glucosidase (yeast) [12]) | inhibition at 1000 µM (α-D-glucosidase (yeast) [12]) | inhibition % β-D-Mannosidase Snail (β-D-mannosidase (snail); at 1000 μM) | inhibition % β-D-Glucuronidase Bovine Liver ([4]; at 1000 μM) | also measured
1 | N[C@@H](Cc1ccc(B(O)O)cc1)C(=O)O [BPA, 4-borono-L-phenylalanine, reference compound] | ^cNI ^d(0%) | ^cNI ^d(0.5%) | Some in solution with undissolved sediment | ^cNI ^d(2.1%) | ^cNI ^d(7.4%) | ^cNI ^d(0%) | ^cNI ^d(4.3%) | ^cNI ^d(1.1%) | ^cNI ^d(0%) | ^cNI ^d(0%) | ^cNI ^d(0%) | 0% | 4% | – | – | – | – | – | – | – | –
2 | N[C@@H](Cc1ccc(B(O)O)cc1)C(=O)O [^10B-BPA, reference compound] | ^cNI ^d(0%) | ^cNI ^d(2.4%) | Some in solution with undissolved sediment | ^cNI ^d(0.3%) | ^cNI ^d(0%) | ^cNI ^d(0%) | ^cNI ^d(1.2%) | ^cNI ^d(0%) | ^cNI ^d(0%) | ^cNI ^d(0%) | ^cNI ^d(0%) | – | – | 3.4% | – | – | – | – | – | – | inhibition % α-D-Glucosidase Yeast (α-D-glucosidase (yeast) [12]; at 100 μM): ^cNI ^d(0%); inhibition % α-D-Glucosidase Rice (α-D-glucosidase (rice); at 100 μM): ^cNI ^d(0%); inhibition % β-D-Glucosidase Bovine Liver ([10]; at 100 μM): ^cNI ^d(14.2%); DOSE SCREEN percentage (%) cell growth inhibition MCF10A Breast (normal) ([11]; 25 µM of drug): * <0%
3 | CC1(C)O[C@H]2O[C@H]3[C@@H]([C@H]2O1)N(Cc1cccc(B2OC(C)(C)C(C)(C)O2)c1)C[C@H]3O [meta 2, N-(3-Methylphenylboronic acid pinacol ester)-3,6-dideoxy-3,6-imino-1,2-O-isopropylidene-α-D-gulofuranose] | ^cNI ^d(1.4%) | ^cNI ^d(13.7%) | In solution | ^cNI ^d(8.4%) | ^cNI ^d(1.4%) | ^cNI ^d(6.8%) | ^cNI ^d(0%) | ^cNI ^d(7.5%) | ^cNI ^d(5.8%) | ^cNI ^d(1.5%) | ^cNI ^d(0%) | 0% | 6 ± 4% | 7.9% | ^aNI ^b(0%) | ^aNI ^b(5.6%) | 8.8% | 0% | ^aNI ^b(3.7%) | ^aNI ^b(10.7%) | inhibition % β-D-Glucosidase Almond (β-D-glucosidase (almond); at 1000 μM): ^aNI ^b(12.6%); inhibition at 100 µM (α-D-glucosidase (rice); at 100 μM): 0%; inhibition at 1000 µM (α-D-glucosidase (rice)): 2.9%; inhibition % α-D-Galactosidase Coffee Beans ([5]; at 1000 μM): ^aNI ^b(0%); inhibition % α-D-Mannosidase Jack Bean ([6]; at 1000 μM): ^aNI ^b(0%); inhibition % α-D-Glucosidase Rat Intestinal Maltase ([7]; at 1000 μM): ^aNI ^b(12.4%); inhibition % α-L-Rhamnosidase P. decumbens ([8]; at 1000 μM): ^aNI ^b(0%); inhibition % Trehalase Porcine Kidney ([9]; at 1000 μM): ^aNI ^b(5.8%); inhibition at 1000 µM ([10]; at 1000 μM): 32.7%; GI50 [11]: > 50 µM; inhibition at 1000 µg/mL (stock) (α-D-glucosidase (yeast) [13]): 9.3%
4 | OB(O)c1cccc(CN2C[C@@H](O)[C@H]3OC(O)[C@H](O)[C@H]32)c1 (stereo partly drawn) [meta 3, N-(3-Methylphenylboronic acid)-3,6-dideoxy-3,6-imino-D-gulofuranose] | ^cNI ^d(24.6%) | ^cNI ^d(16.2%) | In solution | ^cNI ^d(0%) | ^cNI ^d(1.2%) | ^cNI ^d(24.8%) | ^cNI ^d(0%) | ^cNI ^d(0%) | ^cNI ^d(12.3%) | ^cNI ^d(1.2%) | ^cNI ^d(20.9%) | 8.2% | 6 ± 4% | – | ^aNI ^b(1.5%) | ^aNI ^b(36.9%) | 1.4% | 37% | ^aNI ^b(0%) | ^aNI ^b(7.2%) | inhibition % β-D-Glucosidase Almond (β-D-glucosidase (almond); at 1000 μM): ^aNI ^b(45.8%); inhibition at 100 µM (α-D-glucosidase (rice); at 100 μM): 0%; inhibition at 1000 µM (α-D-glucosidase (rice)): 5.9%; inhibition % α-D-Galactosidase Coffee Beans ([5]; at 1000 μM): ^aNI ^b(0.7%); inhibition % α-D-Mannosidase Jack Bean ([6]; at 1000 μM): ^aNI ^b(0%); inhibition % α-D-Glucosidase Rat Intestinal Maltase ([7]; at 1000 μM): ^aNI ^b(2.0%); inhibition % α-L-Rhamnosidase P. decumbens ([8]; at 1000 μM): ^aNI ^b(3.2%); inhibition % Trehalase Porcine Kidney ([9]; at 1000 μM): ^aNI ^b(0%); GI50 [11]: > 50 µM; inhibition at 1000 µg/mL (stock) (α-D-glucosidase (yeast) [13]): -16.7%
